Measured values as given in publication PMC5714280 (Bioorganic & medicinal chemistry letters, 2017).

Tests used:
[1] = biological target: Sigma1 (Homo sapiens, UniProt Q99720); experiment: In vitro radio-ligand binding assay using membranes from MDA-MB-468 cancer cells; conditions: for fold decrease in binding affinity compared to IPAG: relative to IPAG
[2] = test system: MDA-MB-468 cells; experiment: Cell viability assay; type: cell-based; conditions: Cell Titer Glo
[3] = Plasma stability, mouse; type: in vitro ADME
[4] = Plasma stability, human; type: in vitro ADME
[5] = Mouse pharmacokinetics, IV and oral, plasma levels; type: in vivo, Male Swiss Mice; conditions: for V / AUC / clearance: 2 mg/kg IV; for AUC / clearance: male, Swiss, mouse, plasma, iv, 2 mg/kg; for AUC: AUC0−¥; for clearance: CL
[6] = Mouse pharmacokinetic exposure, IP, plasma and brain; conditions: male, Swiss, brain, 10 mg/kg
[7] = biological target: T1, androgen receptor (AR) (Homo sapiens, UniProt P10275); experiment: Androgen reporter assay; type: cell-based
T1 sequence (P10275 1-920): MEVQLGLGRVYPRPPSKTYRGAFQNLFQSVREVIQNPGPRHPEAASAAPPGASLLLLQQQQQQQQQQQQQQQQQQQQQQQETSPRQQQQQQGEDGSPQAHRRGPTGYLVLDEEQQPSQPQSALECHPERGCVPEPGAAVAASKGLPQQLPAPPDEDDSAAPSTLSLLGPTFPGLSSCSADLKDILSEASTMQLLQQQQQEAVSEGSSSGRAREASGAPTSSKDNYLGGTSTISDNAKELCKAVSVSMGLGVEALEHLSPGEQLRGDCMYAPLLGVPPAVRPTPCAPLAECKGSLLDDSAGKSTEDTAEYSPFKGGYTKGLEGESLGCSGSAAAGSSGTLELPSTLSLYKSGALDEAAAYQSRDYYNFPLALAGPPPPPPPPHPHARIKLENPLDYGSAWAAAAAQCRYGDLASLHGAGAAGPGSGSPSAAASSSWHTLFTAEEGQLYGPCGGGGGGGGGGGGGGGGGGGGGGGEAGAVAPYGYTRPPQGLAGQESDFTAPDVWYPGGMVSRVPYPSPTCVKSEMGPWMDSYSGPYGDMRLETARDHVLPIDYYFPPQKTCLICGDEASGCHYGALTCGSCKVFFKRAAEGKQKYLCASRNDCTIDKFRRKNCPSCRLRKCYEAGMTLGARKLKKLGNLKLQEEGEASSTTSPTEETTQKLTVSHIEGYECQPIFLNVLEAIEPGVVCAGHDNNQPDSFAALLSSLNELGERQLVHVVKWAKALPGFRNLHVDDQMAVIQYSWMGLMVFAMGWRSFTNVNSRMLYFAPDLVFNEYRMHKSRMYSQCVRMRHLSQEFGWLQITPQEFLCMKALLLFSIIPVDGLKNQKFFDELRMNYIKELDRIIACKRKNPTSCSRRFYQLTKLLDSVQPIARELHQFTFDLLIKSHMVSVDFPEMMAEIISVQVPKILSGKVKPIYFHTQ

[8] = Stability in solution and photo-stability; type: physicochemical; conditions: for photo-stability: exposed to normal fluorescent light, aryl iodide

Chain of Sigma1 (Q99720 whole entry): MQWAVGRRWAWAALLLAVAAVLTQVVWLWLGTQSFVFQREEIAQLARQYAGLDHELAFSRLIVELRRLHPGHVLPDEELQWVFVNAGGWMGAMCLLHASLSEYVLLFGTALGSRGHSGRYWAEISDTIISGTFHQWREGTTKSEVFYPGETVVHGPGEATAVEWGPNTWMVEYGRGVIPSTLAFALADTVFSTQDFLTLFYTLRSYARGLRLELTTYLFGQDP

| SMILES | fold decrease in binding affinity compared to IPAG [1] | acute cytotoxicity [2] | antiproliferative activity, potency [2] | Plasma Stability Mouse [3] | Plasma Stability Human [4] | photo-stability [8] | other results |
| --- | --- | --- | --- | --- | --- | --- | --- |
| N=C(NCCCOc1ccc(F)cc1)NCCCOc1ccc(F)cc1 [compound 3] |  |  |  |  |  |  | Sigma1 binding affinity (in words) [1]: no affinity |
| N=C(NCCCOc1ccc(F)cc1)Nc1ccc(C(F)(F)F)cc1 [compound 6] | 5–10 fold |  |  |  |  |  |  |
| N=C(NCCCOc1ccc(F)cc1)Nc1ccc(Cl)cc1 [compound 4, 1-(4-chlorophenyl)-3-(3-(4-fluorophenoxy)propyl)guanidine] |  | not acutely cytotoxic | 3000 to 20000 nM | >6 h | >6 h |  | V ([5]; Data set 1): 91.0 L/kg; V ([5]; Data set 2): 57.6 L/kg; AUC ([5]; Data set 1): 57 ng·h/mL; AUC ([5]; Data set 2): 71 ng·h/mL; clearance ([5]; Data set 1): 586 mL/min/kg; clearance ([5]; Data set 2): 469 mL/min/kg; dose escalation of exposure, oral 10 mg/kg to 30 mg/kg ([5]; oral route, 10 mg/kg to 30 mg/kg): < 3 fold; Cmax [6]: 691 ng/g |
| C[C@]12CC[C@H](O)CC1=CC[C@@H]1[C@@H]2CC[C@]2(C)C(c3cccnc3)=CC[C@@H]12 [abiraterone] |  |  |  |  |  |  | EC50 [7]: 17100 nM |
| N=C(Nc1ccc(I)cc1)Nc1ccc(I)cc1 [compound 2] |  |  |  |  |  | photo-stability issue similar to IPAG | Sigma1 binding affinity (in words) [1]: binding affinity similar to IPAG |
| NC(=NC12CC3CC(CC(C3)C1)C2)Nc1ccc(I)cc1 [IPAG, (1-adamantan-1-yl)-3-(4-iodophenyl)guanidine, reference compound] |  |  | 3000 to 20000 nM |  |  | particularly unstable when exposed to normal fluorescent light | stability in solution ([8]; in solution): unstable when in solution |
| COc1ccc(NC(=N)NCCCOc2ccc(F)cc2)cc1 [compound 5] | 5–10 fold | not acutely cytotoxic | 3000 to 20000 nM | >6 h | >6 h |  |  |
| N=C(NCCCOc1ccc(F)cc1)Nc1ccc(I)cc1 [compound 1] | 5–10 fold | not acutely cytotoxic | 3000 to 20000 nM | >6 h | >6 h | photo-stability issue similar to IPAG |  |
